Test results: patent publication US8445653B2, “Freeze-dried preparation of stabilized anthracycline compound” (Dainippon Sumitomo Pharma, priority 2002, dated 2013)
Structures can show the parent of a compound that is named as a salt. Where two headings read alike, the source gives them in different places. Values belong to the compound of their own block, whether it stands above or below them.

Assays:
[1] = injection sold in Japan dissolved in distilled water for injection or physiological saline solution; cited from earlier work
[2] = Turbidity of injection solution prepared from lyophilized amrubicin preparation; type: physicochemical
[3] = pH of anthracycline injections when dissolved; type: physicochemical; settings: lyophilized preparation for clinical administration dissolved in physiological saline solution or 5% glucose injection
Method: Actually, when the anthracycline anticancer agents being sold in Japan (all of them are injections) are dissolved in a distilled water for injection or a physiological saline solution, the pH values thereof are as follows (Drugs (ethical drugs) in Japan, 24 ed., 2001, edited by Japan Pharmaceutical Information Center).
(§1) On the contrary, since amrubicin hydrochloride tends to generate a deaminated compound (3) at a pH value of 3.5 or above, it is unstable at a high pH value as shown in the above anthracycline anticancer agents, and when the lyophilized preparation of amrubicin hydrochloride for clinical administration is dissolved in a physiological saline solution or a 5% glucose injection, the pH value thereof is 2.4 to 3.0.

[4] = pH dependence of generation of deaminated compound (3) from amrubicin hydrochloride; type: physicochemical
Method: as §1

[5] = Degradation in solution state at controlled solution temperature (Experiment 4); type: physicochemical
Method: To amrubicin hydrochloride (20 mg potency) in a glass beaker were added L-cysteine hydrochloride monohydrate (3.2 mg) and lactose (50 mg) as an excipient, and the resultant was dissolved in a distilled water for injection. The pH value of the solution was slightly adjusted to about pH 3 with a trace amount of sodium hydroxide and hydrochloric acid, and the resulting solution was put into a temperature-controlled bath at 5° C., 10° C., 15° C. and 25° C. The solution was sampled at the start, 6 hours later, and 24 hours later, and the degradation products therein were measured by HPLC method. The increased amounts of the desaccharified compound (2) and the deaminated compound (3) from those at the start are shown in Table 4.

[6] = solution about pH 3, 5° C., 6 h
[7] = solution about pH 3, 5° C., 24 h
[8] = solution about pH 3, 10° C., 0 h
[9] = solution about pH 3, 10° C., 6 h
[10] = solution about pH 3, 10° C., 24 h
[11] = solution about pH 3, 15° C., 0 h
[12] = solution about pH 3, 15° C., 6 h
[13] = solution about pH 3, 15° C., 24 h
[14] = solution about pH 3, 25° C., 0 h
[15] = solution about pH 3, 25° C., 6 h
[16] = solution about pH 3, 25° C., 24 h

Compound: COc1cccc2c1C(=O)c1c(O)c3c(c(O)c1C2=O)C[C@@](O)(C(=O)CO)C[C@@H]3O[C@H]1C[C@H](N)[C@H](O[C@@H]2CCCCO2)[C@H](C)O1.Cl [Pirarubucin hydrochloride]
pH value [1]: 5.0-6.5

Compound: CC[C@@]1(O)C[C@H](O[C@H]2C[C@H](N(C)C)[C@H](O[C@H]3C[C@H](O)[C@H](O[C@H]4CCC(=O)[C@H](C)O4)[C@H](C)O3)[C@H](C)O2)c2c(cc3c(c2O)C(=O)c2c(O)cccc2C3=O)[C@H]1C(=O)OC [Aclarubicin hydrochloride]
pH value [1]: 5.0-6.5

Ratio at which it may cause turbidity of the injection solution [2]: ≥ 1%
Compound: CC(=O)C1=Cc2c(O)c3c(c(O)c2[C@@H](OC2CC(O)C(O)CO2)C1)C(=O)c1ccccc1C3=O (some centres unmarked) [deaminated compound (3)]

Compound: COc1cccc2c1C(=O)c1c(O)c3c(c(O)c1C2=O)C[C@@](O)(C(C)=O)C[C@@H]3O[C@H]1C[C@H](N)[C@H](O)[C@H](C)O1 [Daunorubicin hydrochloride]
pH value [1]: 5.0-6.5

Compound: CC(=O)[C@]1(N)Cc2c(O)c3c(c(O)c2[C@@H](O[C@H]2C[C@H](O)[C@H](O)CO2)C1)C(=O)c1ccccc1C3=O [amrubicin hydrochloride, (7S,9S)-9-Acetyl-9-amino-7-[(2-deoxy-β-D-erythro-pentopyranosyl)-oxy]-7,8,9,10-tetrahydro-6,11-dihydroxy-5,12-naphthacenedione]
pH value [3]: 2.4 to 3.0
pH value at which deaminated compound (3) tends to be generated [4]: ≥ 3.5
Increased amount of deaminated compound (3) ([5]; solution about pH 3, 5° C., 0 h): 0.00%
Increased amount of deaminated compound (3) [5, 6]: 0.00%
Increased amount of desaccharified compound (2) [5, 6]: −0.01%
Increased amount of deaminated compound (3) [5, 7]: 0.04%
Increased amount of desaccharified compound (2) [5, 7]: 0.02%
Increased amount of deaminated compound (3) [5, 8]: 0.00%
Increased amount of desaccharified compound (2) [5, 8]: 0.00%
Increased amount of deaminated compound (3) [5, 9]: 0.00%
Increased amount of desaccharified compound (2) [5, 9]: 0.01%
Increased amount of deaminated compound (3) [5, 10]: 0.09%
Increased amount of desaccharified compound (2) [5, 10]: 0.01%
Increased amount of deaminated compound (3) [5, 11]: 0.00%
Increased amount of desaccharified compound (2) [5, 11]: 0.00%
Increased amount of deaminated compound (3) [5, 12]: 0.07%
Increased amount of desaccharified compound (2) [5, 12]: 0.00%
Increased amount of deaminated compound (3) [5, 13]: 0.24%
Increased amount of desaccharified compound (2) [5, 13]: −0.01%
Increased amount of deaminated compound (3) [5, 14]: 0.00%
Increased amount of desaccharified compound (2) [5, 14]: 0.00%
Increased amount of deaminated compound (3) [5, 15]: 0.19%
Increased amount of desaccharified compound (2) [5, 15]: 0.05%
Increased amount of deaminated compound (3) [5, 16]: 0.60%
Increased amount of desaccharified compound (2) [5, 16]: 0.18%
Increased amount of desaccharified compound (2) ([5]; solution about pH 3 with L-cysteine hydrochloride monohydrate and lactose, 5° C., 0 h): 0.00%

Compound: CC(=O)[C@]1(O)Cc2c(O)c3c(c(O)c2[C@@H](O[C@H]2C[C@H](N)[C@H](O)[C@H](C)O2)C1)C(=O)c1ccccc1C3=O [Idarubicin hydrochloride]
pH value [1]: 5.0-7.0

Compound: COc1cccc2c1C(=O)c1c(O)c3c(c(O)c1C2=O)C[C@@](O)(C(=O)CO)C[C@@H]3O[C@H]1C[C@H](N)[C@H](O)[C@H](C)O1 [Doxorubicin hydrochloride]
pH value [1]: 5.0-6.0
